# From PMC5736175, “Nicotinic alpha 7 receptor agonists EVP-6124 and BMS-933043, attenuate scopolamine-induced deficits in visuo-spatial paired associates learning” (PLoS ONE, 2017)
# Values joined by “and” are separate entries in the source; they are usually repeats but may differ in a detail not shown here. Identical values can stand only once. Counter-ions that a name gives are not always drawn. Marks after values point to notes of the source that are not given here.
# Experiments:
# [1] = system: cynomolgus monkeys; assay: Scopolamine dose-response on CANTAB vsPAL task performance
# Source text: Thirteen experimentally naïve male cynomolgus monkeys (Macaca Fasicularis; 3–5 years of age; 5.0–7.5 kg at the beginning of the study) served as subjects. Subjects were housed in pairs, separated during testing (Monday through Friday) and re-paired after feeding in the afternoon. Subjects were fed standard monkey chow (Harlan Teklad Global 20% protein Primate Diet 2050) in sufficient quantities to ensure normal growth while maintaining sufficient motivation to perform the cognitive testing [30]. Water was continuously available except during behavioral testing. Fresh fruit, toys and foraging devices were routinely provided in the monkey colony rooms.
# For behavioral testing subjects were seated comfortably in restraint chairs (Primate Products, Immokalee, FL), and placed in individual, sound attenuated chambers (Med-Associates, St. Albans, VT), equipped with lights, a white noise generator and a monitoring camera. A touch-sensitive computer monitor was within easy reach and session events were controlled by a Monkey CANTAB test station; (Lafayette Instruments, Lafayette, IN) and Whisker Control [45]. Following correct responses, a dispenser delivered 190 mg banana-flavored pellets (Bioserv, Frenchtown PA).
# Ten subjects were trained to perform the CANTAB vsPAL test as previously described [38, 46]. Briefly, the test required the animal to associate a stimulus (abstract shape) with a given spatial location on the computer screen (one of the four corners; S1 Fig). Ten trials each of increasing difficulty (2-, 3- or 4- stimuli) were presented. Trials began with the ‘sample phase’ where stimuli are presented and touched sequentially in their respective locations with a 1 sec delay between stimuli. Following 5 sec where the screen was blank, the choice phase began. The same stimulus was presented in all four corners of the screen for all difficulty levels. […] After a 1 sec screen blank another stimulus was presented in all four corners. If the animal touched the correct location for all shapes in the choice phase on the first attempt the trial was recorded as ‘correct on the initial attempt’. […] The same trial could be repeated up to 5 additional times.
# If the animal learned the sequence by the 6th attempt, the trial was recorded as ‘eventual correct’, or ‘incorrect’ if not. […] Additional measures were the percent completion (the proportion of trials on which both sample and choice responses were made), and response latency (time from sample onset to the screen touch in the choice phase, averaged across difficulty conditions).
# Drug testing was conducted on Mondays and Thursdays. An additional baseline session was conducted on Tuesdays. […] Additional animals were included in later studies as their performance improved.
# There was a washout period of at least 2 weeks between studies.
# Accuracy measures (i.e. percent initially correct and percent eventually correct) were analyzed with repeated measures analysis of variance (RM-ANOVA) with the two within-subject factors of difficulty (mean of number of stimuli per trial and overall mean) and treatment. Latencies to respond in all choice phases and percent task completed for the entire session were analyzed by one way RM ANOVA. […] Statistical tests were performed using OriginPro v 9.1 (OriginLab Co., Northampton, MA). Missing data were filled with the mean of the respective cell to enable RM ANOVA computation.
# [2] = system: scopolamine-treated cynomolgus monkeys; assay: Scopolamine-induced impairment of vsPAL task performance, treatment + scopolamine; format: in vivo, cynomolgus monkeys (Macaca Fasicularis); details: for scopolamine impairment: difference between vehicle+vehicle and vehicle+scopolamine, % correct eventual: 4-stimuli condition; for Percent Correct on Initial Attempt (SEM), 2 stimuli / Percent Correct on Initial Attempt (SEM), 3 stimuli / Percent Correct on Initial Attempt (SEM), 4 stimuli: Vehicle + Scopolamine; for mean (cohen's d calculations): eventual correct, 4-stimuli
# Procedure: Doses cited refer to the free base form of the compounds. […] All drugs were administered intramuscularly (i.m.) in a dosing volume of 0.1–0.2 ml/kg.
# On days when compound testing occurred, approximately half the cohort received one dose and the remainder another dose of the same compound and therefore dose order was staggered between animals. With the exception of EVP-6124, all other compounds were tested in a single dose response study.
# Cohen’s d values of >0.2, >0.5 and >0.8 are described using the conventions of small, medium, and large effects, respectively.
# [3] = Scopolamine 0.003 mg/kg, i.m., MEAN
# [4] = Scopolamine 0.003 mg/kg, i.m., individual animals
# [5] = Scopolamine 0.0056 mg/kg, i.m., MEAN
# [6] = Scopolamine 0.0056 mg/kg, i.m., individual animals
# [7] = Scopolamine 0.01 mg/kg i.m., MEAN
# [8] = Scopolamine 0.01 mg/kg i.m., individual animals
# [9] = Average Individualized Scopolamine (0.0045-0.0067 mg/kg) + Vehicle, individual animals
# [10] = Average Individualized Scopolamine + Vehicle, MEAN of 8 animals
# [11] = Average Individualized Scopolamine + Vehicle, group MEAN
# [12] = Average Individualized Scopolamine + Vehicle, group MEAN of 6 animals
# [13] = EVP DRC 2, Average Individualized Scopolamine + Vehicle, group MEAN of 7 animals
smiles,measurement,setting,value
"CN1[C@@H]2C[C@@H](OC(=O)[C@H](CO)c3ccccc3)C[C@H]1[C@@H]1O[C@@H]12 [Scopolamine, Scopolamine HCl]","Eventual Correct, 2 Stimuli",[1]; [3],100.0%
same,"Eventual Correct, 3 Stimuli",[1]; [3],100.0%
same,"Eventual Correct, 4 Stimuli",[1]; [3],90.0%
same,"Eventual Correct, Overall Mean % Correct",[1]; [3],96.7%
same,"Initial Correct, 3 Stimuli",[1]; [3],68.7%
same,"Initial Correct, 4 Stimuli",[1]; [3],57.5%
same,"Initial Correct, Overall Mean % Correct",[1]; [3],74.2%
same,"Initial correct, 2 Stimuli",[1]; [3],96.3%
same,% Completion,[1]; [4],63.0% and 97.0% and 100.0% and 84.0%
same,"Average Response Latency, ms (Avg Rsp Lat)",[1]; [4],6153.3 ms and 1831.0 ms and 1549.1 ms and 1787.2 ms and 2129.2 ms and 2342.9 ms and 2289.1 ms and 1548.2 ms
same,"Eventual Correct, 2 Stimuli",[1]; [4],100.0%
same,"Eventual Correct, 3 Stimuli",[1]; [4],100.0%
same,"Eventual Correct, 4 Stimuli",[1]; [4],90.0% and 100.0%
same,"Eventual Correct, Overall Mean % Correct",[1]; [4],93.3% and 96.7% and 100.0%
same,"Initial Correct, 3 Stimuli",[1]; [4],70.0% and 100.0% and 40.0% and 60.0%
same,"Initial Correct, 4 Stimuli",[1]; [4],30.0% and 70.0% and 100.0% and 50.0% and 60.0%
same,"Initial Correct, Overall Mean % Correct",[1]; [4],63.3% and 100.0% and 73.3% and 66.7% and 70.0% and 76.7%
same,"Initial correct, 2 Stimuli",[1]; [4],90.0% and 100.0%
same,"Eventual Correct, 2 Stimuli",[1]; [5],95.0%
same,"Eventual Correct, 3 Stimuli",[1]; [5],84.3%
same,"Eventual Correct, 4 Stimuli",[1]; [5],51.1%
same,"Eventual Correct, Overall Mean % Correct",[1]; [5],76.8%
same,"Initial Correct, 3 Stimuli",[1]; [5],54.3%
same,"Initial Correct, 4 Stimuli",[1]; [5],32.8%
same,% Completion,[1]; [6],21.0% and 62.0% and 51.0% and 97.0% and 88.0% and 91.0% and 34.5%
same,"Average Response Latency, ms (Avg Rsp Lat)",[1]; [6],1881.3 ms and 2302.7 ms and 2706.5 ms and 2004.6 ms and 2231.8 ms and 2896.7 ms and 2108.4 ms and 1817.8 ms
same,"Eventual Correct, 2 Stimuli",[1]; [6],60.0% and 100.0%
same,"Eventual Correct, 3 Stimuli",[1]; [6],100.0% and 50.0% and 90.0% and 70.0%
same,"Eventual Correct, 4 Stimuli",[1]; [6],50.0% and 16.7% and 70.0% and 0.0% and 90.0%
same,"Eventual Correct, Overall Mean % Correct",[1]; [6],83.3% and 55.6% and 86.7% and 90.0% and 56.7% and 96.7%
same,"Initial Correct, 3 Stimuli",[1]; [6],70.0% and 40.0% and 20.0% and 60.0% and 50.0%
same,"Initial Correct, 4 Stimuli",[1]; [6],30.0% and 16.7% and 50.0% and 0.0% and 60.0%
same,"Initial Correct, Overall Mean % Correct",[1]; [6],26.0% and 63.3% and 76.7% and 53.3%
same,"Initial correct, 2 Stimuli",[1]; [6],50.0% and 90.0% and 100.0%
same,"Eventual Correct, 2 Stimuli",[1]; [7],96.3%
same,"Eventual Correct, 4 Stimuli",[1]; [7],36.8%
same,"Eventual Correct, Overall Mean % Correct",[1]; [7],68.5%
same,"Initial Correct, 3 Stimuli",[1]; [7],47.8%
same,"Initial Correct, 4 Stimuli",[1]; [7],20.1%
same,% Completion,[1]; [8],63.6% and 78.0% and 52.6% and 100.0% and 43.5% and 50.8% and 31.0%
same,"Average Response Latency, ms (Avg Rsp Lat)",[1]; [8],3290.4 ms and 1872.3 ms and 1904.8 ms and 2135.7 ms and 2272.7 ms and 2295.1 ms and 2067.4 ms and 1369.7 ms
same,"Eventual Correct, 2 Stimuli",[1]; [8],100.0% and 90.0% and 80.0%
same,"Eventual Correct, 3 Stimuli",[1]; [8],100.0% and 60.0% and 90.0% and 14.3%
same,"Eventual Correct, 4 Stimuli",[1]; [8],44.4% and 25.0% and 0.0%
same,"Eventual Correct, Overall Mean % Correct",[1]; [8],81.5% and 75.0% and 53.3% and 89.3%
same,"Initial Correct, 3 Stimuli",[1]; [8],50.0% and 70.0% and 90.0% and 30.0% and 0.0% and 12.5%
same,"Initial Correct, 4 Stimuli",[1]; [8],33.3% and 25.0% and 0.0% and 22.2%
same,"Initial Correct, Overall Mean % Correct",[1]; [8],68.3% and 36.7% and 60.7% and 26.7% and 20.9% and 53.4%
same,"Initial correct, 2 Stimuli",[1]; [8],90.0% and 60.0% and 30.0%
same,"scopolamine impairment: difference between vehicle+vehicle and vehicle+scopolamine, % correct eventual",[2]; donepezil study,49.4%
same,"scopolamine impairment: difference between vehicle+vehicle and vehicle+scopolamine, % correct eventual",[2]; first EVP-6124 study,20.5%
same,% Completion,[2]; [9],57.3% and 62.4% and 94.5% and 85.3% and 87.0% and 81.6%
same,Average Response Latency,[2]; [9],1943.4 ms and 2791.5 ms and 2008.6 ms and 2389.3 ms and 2808.7 ms and 2502.8 ms
same,"Eventual Correct, 2 Stimuli",[2]; [9],90.0% and 100.0% and 95.0% and 97.5%
same,"Eventual Correct, 3 Stimuli",[2]; [9],65.7% and 66.7% and 90.0%
same,"Eventual Correct, 4 Stimuli",[2]; [9],36.7% and 32.2% and 47.1% and 63.3% and 32.5% and 69.2%
same,"Eventual Correct, Overall Mean % Correct",[2]; [9],66.2% and 66.3% and 73.2% and 84.4% and 71.7% and 85.6%
same,"Initial Correct, 3 Stimuli",[2]; [9],40.0% and 47.5% and 30.0% and 42.5% and 60.0%
same,"Initial Correct, 4 Stimuli",[2]; [9],16.7% and 22.5% and 20.0%
same,"Initial Correct, Overall Mean % Correct",[2]; [9],53.1% and 56.9% and 66.9%
same,"Initial correct, 2 Stimuli",[2]; [9],60.0% and 95.0% and 70.0% and 87.5%
same,Average Response Latency (Avg Rsp Lat),[2]; [10],2342.3 ms
same,"Eventual Correct, 2 Stimuli",[2]; [10],98.1%
same,"Eventual Correct, 4 Stimuli",[2]; [10],50.3%
same,"Eventual Correct, Overall Mean % Correct",[2]; [10],76.1%
same,"Initial Correct, 3 Stimuli",[2]; [10],46.2%
same,"Initial Correct, 4 Stimuli",[2]; [10],19.5%
same,"Initial correct, 2 Stimuli",[2]; [10],84.3%
same,% Completion,[2]; [11],83.8%
same,Average Response Latency (Avg rsp lat),[2]; [11],1934.6 ms
same,"Eventual Correct, 2 Stimuli",[2]; [11],99.7%
same,"Eventual Correct, 3 Stimuli",[2]; [11],98.0%
same,"Eventual Correct, Overall Mean % Correct",[2]; [11],92.3%
same,"Initial Correct, 3 Stimuli",[2]; [11],70.0%
same,"Initial Correct, Overall Mean % Correct",[2]; [11],65.4%
same,"Initial correct, 2 Stimuli",[2]; [11],87.2%
same,% Completion,[2]; [12],78.0%
same,Average Response Latency,[2]; [12],2407.4 ms
same,"Eventual Correct, 2 Stimuli",[2]; [12],97.1%
same,"Eventual Correct, 4 Stimuli",[2]; [12],46.8%
same,"Eventual Correct, Overall Mean % Correct",[2]; [12],74.6%
same,"Initial Correct, 3 Stimuli",[2]; [12],49.2%
same,Average Response Latency (Avg rsp lat),[2]; [13],2021.60 ms
same,"Eventual Correct, 2 Stimuli",[2]; [13],99.5%
same,"Eventual Correct, 3 Stimuli",[2]; [13],95.7%
same,"Eventual Correct, 4 Stimuli",[2]; [13],65.7%
same,"Eventual Correct, Overall Mean % Correct",[2]; [13],87.7%
same,"Initial Correct, 3 Stimuli",[2]; [13],66.2%
same,"Initial Correct, 4 Stimuli",[2]; [13],34.6%
same,"Initial Correct, Overall Mean % Correct",[2]; [13],64.9%
same,"Initial correct, 2 Stimuli",[2]; [13],91.9%
same,"Percent Correct on Initial Attempt (SEM), 2 stimuli",[2]; BMS-933043 study,89.6% (1.8%)
same,"Percent Correct on Initial Attempt (SEM), 3 stimuli",[2]; BMS-933043 study,67.0% (5.0%)
same,"Percent Correct on Initial Attempt (SEM), 4 stimuli",[2]; BMS-933043 study,37.3% (7.4%) ††
same,"Percent Correct on Initial Attempt (SEM), 2 stimuli",[2]; EVP-6124 study 1,87.3% (4.0%)
same,"Percent Correct on Initial Attempt (SEM), 3 stimuli",[2]; EVP-6124 study 1,70.0% (3.4%) ††
same,"Percent Correct on Initial Attempt (SEM), 4 stimuli",[2]; EVP-6124 study 1,38.8% (4.0%) ††
same,"Percent Correct on Initial Attempt (SEM), 2 stimuli",[2]; EVP-6124 study 2,91.9% (3.6%)
same,"Percent Correct on Initial Attempt (SEM), 3 stimuli",[2]; EVP-6124 study 2,66.2% (7.6%) †
same,"Percent Correct on Initial Attempt (SEM), 4 stimuli",[2]; EVP-6124 study 2,34.6% (4.2%) ††
same,"Percent Correct on Initial Attempt (SEM), 2 stimuli",[2]; RG3487 study,84.3% (2.8%)
same,"Percent Correct on Initial Attempt (SEM), 3 stimuli",[2]; RG3487 study,46.2% (8.0%) ††
same,"Percent Correct on Initial Attempt (SEM), 4 stimuli",[2]; RG3487 study,19.5% (4.9%) ††
same,"Percent Correct on Initial Attempt (SEM), 2 stimuli",[2]; donepezil study,79.6% (5.3%)
same,"Percent Correct on Initial Attempt (SEM), 3 stimuli",[2]; donepezil study,49.2% (6.5%) †
same,"Percent Correct on Initial Attempt (SEM), 4 stimuli",[2]; donepezil study,25.8% (4.5%) ††
same,mean (cohen's d calculations),"[2]; scop+vehicle, donepezil study",46.8
same,mean (cohen's d calculations),"[2]; veh+scop, BMS-933043 study",65.7
same,mean (cohen's d calculations),"[2]; vehicle+scop, EVP-6124 study 2",65.7
